Experimental data from patent US10457654B2 (GENENTECH, INC., priority 2017, dated 2019).
Counter-ions that a name gives are not always drawn.

Tests used:
[1] = biological target: T1, hNav1.7 (Homo sapiens (Human), UniProt Q15858); experiment: Tritiated compound binding to membranes from cells expressing hNav1.7 and the β1 subunit, modified protocol (LBA, Ex. 243B); conditions: 300 pM [3H]compound, room temperature, read-out: Nav1.7 LBA (Ex. 243B) IC50
Target sequence in this assay (Q15858 whole entry, looked up): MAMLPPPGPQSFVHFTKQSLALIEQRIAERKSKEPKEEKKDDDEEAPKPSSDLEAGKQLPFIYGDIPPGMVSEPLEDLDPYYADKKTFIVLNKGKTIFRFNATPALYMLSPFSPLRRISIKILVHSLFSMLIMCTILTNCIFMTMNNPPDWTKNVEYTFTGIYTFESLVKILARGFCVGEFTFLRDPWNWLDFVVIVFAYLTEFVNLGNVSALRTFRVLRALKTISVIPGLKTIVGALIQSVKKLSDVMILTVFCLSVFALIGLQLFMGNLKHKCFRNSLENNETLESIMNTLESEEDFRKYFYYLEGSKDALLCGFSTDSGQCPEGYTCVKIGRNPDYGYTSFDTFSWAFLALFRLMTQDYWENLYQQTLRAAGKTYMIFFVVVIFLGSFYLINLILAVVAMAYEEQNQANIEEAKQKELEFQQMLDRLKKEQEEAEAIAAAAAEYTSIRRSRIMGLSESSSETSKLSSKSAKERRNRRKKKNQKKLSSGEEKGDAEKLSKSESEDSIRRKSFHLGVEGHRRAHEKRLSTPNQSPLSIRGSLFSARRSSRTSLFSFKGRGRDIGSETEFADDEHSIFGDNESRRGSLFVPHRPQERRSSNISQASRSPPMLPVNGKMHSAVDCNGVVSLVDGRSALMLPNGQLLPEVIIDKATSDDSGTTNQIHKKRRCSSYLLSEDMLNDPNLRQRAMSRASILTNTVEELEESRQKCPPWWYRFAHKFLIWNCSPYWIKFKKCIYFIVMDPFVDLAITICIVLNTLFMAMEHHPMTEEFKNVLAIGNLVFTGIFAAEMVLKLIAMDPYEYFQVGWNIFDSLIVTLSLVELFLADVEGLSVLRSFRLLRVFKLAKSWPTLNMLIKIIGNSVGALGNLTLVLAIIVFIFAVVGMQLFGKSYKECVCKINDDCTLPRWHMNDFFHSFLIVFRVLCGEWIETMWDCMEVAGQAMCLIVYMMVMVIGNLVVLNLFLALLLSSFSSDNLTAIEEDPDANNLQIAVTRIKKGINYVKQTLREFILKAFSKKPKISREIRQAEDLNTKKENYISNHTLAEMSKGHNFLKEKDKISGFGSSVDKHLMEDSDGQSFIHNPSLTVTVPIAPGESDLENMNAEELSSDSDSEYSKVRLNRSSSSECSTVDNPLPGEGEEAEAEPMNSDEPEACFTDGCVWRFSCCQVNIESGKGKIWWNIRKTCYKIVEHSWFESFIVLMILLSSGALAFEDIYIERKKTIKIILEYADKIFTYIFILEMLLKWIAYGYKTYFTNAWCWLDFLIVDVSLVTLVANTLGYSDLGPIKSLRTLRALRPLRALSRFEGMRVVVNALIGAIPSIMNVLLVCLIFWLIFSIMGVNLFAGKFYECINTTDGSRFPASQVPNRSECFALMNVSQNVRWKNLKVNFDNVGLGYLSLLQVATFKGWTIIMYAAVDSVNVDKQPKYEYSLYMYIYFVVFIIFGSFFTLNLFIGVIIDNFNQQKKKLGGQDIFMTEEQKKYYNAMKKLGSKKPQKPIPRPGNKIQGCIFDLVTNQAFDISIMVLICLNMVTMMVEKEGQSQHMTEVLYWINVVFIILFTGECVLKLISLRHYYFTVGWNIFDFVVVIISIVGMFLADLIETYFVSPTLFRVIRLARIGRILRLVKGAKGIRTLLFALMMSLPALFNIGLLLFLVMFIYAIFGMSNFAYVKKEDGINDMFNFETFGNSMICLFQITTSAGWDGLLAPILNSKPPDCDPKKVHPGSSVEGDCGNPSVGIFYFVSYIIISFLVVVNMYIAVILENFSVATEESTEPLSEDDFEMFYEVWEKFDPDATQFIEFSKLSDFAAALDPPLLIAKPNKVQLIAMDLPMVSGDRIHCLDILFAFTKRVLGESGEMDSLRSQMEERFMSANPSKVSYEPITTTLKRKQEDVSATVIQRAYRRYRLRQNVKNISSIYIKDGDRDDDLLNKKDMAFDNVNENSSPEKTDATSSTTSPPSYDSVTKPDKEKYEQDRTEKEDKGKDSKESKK
Target sequence in this assay (Q07699 whole entry partner, looked up): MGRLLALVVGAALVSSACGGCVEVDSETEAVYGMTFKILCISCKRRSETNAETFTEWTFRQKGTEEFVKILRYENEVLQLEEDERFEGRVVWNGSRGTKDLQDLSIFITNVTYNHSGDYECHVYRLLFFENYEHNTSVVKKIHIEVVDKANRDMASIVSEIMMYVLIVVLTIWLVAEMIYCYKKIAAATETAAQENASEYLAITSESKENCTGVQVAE

[2] = biological target: T1, hNav1.7; experiment: Patch voltage clamp electrophysiology assay (EP), Syncropatch 384PE, CHO cells expressing Nav1.7; assay type: cell-based; conditions: read-out: EP_SP hNav1.7 (Ex. 243B) IC50
Outline: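 Automated whole-cell patch clamp on CHO cells stably expressing human Nav1.7, CsCl/EGTA internal and NMDG/80 mM Na+ external (pH 7.4). From −50 mV holding, −10 mV step, 20 ms recovery at −150 mV, then second −10 mV pulse where block is measured; inhibition after 7.5 min compound incubation.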
Target sequence in this assay (Q15858 other isoform, or with tags, fused parts or gaps): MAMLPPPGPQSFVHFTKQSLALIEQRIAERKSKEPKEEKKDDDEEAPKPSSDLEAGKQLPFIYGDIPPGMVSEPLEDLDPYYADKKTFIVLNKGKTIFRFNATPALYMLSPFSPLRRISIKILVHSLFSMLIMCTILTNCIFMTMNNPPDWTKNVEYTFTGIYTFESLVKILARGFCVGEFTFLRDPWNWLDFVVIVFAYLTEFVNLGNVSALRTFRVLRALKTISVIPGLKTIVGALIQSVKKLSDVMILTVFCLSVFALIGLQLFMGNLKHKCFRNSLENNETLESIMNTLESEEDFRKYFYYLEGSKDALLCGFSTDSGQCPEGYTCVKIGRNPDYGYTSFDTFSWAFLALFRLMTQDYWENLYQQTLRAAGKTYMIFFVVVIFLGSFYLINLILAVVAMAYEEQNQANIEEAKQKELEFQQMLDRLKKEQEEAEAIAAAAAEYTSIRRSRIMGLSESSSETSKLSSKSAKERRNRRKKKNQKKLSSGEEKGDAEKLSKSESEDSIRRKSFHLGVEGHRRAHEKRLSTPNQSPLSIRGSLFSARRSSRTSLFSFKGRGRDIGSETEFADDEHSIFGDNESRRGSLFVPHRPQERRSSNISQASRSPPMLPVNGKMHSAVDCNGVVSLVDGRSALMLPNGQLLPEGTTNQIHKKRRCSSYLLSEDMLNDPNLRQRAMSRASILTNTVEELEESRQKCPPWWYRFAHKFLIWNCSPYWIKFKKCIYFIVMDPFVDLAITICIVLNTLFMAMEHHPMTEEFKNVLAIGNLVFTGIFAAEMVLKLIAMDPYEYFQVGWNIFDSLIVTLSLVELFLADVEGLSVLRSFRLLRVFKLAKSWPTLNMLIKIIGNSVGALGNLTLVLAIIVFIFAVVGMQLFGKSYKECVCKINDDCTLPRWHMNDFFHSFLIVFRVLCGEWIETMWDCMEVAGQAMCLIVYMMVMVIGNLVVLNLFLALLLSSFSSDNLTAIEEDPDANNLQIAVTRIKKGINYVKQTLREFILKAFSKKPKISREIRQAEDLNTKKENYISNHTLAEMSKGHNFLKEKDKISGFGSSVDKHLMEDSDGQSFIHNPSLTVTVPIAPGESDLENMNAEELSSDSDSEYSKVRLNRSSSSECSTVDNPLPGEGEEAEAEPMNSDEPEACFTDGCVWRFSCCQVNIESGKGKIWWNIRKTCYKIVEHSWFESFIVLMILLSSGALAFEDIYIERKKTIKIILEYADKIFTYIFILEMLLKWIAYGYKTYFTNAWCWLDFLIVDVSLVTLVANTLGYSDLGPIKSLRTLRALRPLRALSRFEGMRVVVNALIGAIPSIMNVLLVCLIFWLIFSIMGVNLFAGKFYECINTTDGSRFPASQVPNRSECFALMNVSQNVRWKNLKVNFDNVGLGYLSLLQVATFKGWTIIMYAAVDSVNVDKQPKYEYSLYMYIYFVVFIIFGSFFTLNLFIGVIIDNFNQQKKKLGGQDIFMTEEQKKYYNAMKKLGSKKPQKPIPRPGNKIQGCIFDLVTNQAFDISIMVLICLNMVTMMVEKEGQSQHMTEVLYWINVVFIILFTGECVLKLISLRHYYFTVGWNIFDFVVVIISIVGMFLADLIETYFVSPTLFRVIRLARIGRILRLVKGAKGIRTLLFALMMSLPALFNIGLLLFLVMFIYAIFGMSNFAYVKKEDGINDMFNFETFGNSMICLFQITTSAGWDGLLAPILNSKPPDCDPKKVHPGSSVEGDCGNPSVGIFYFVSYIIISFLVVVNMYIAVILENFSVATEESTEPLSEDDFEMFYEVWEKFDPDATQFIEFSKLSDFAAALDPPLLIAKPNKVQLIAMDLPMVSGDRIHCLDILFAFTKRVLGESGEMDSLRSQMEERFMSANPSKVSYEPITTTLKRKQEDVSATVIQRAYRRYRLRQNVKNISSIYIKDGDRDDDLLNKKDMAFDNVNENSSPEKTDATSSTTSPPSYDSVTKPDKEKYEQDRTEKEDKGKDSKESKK

[3] = holding potential -50 mV, […] compound incubation

Structure (SMILES)	IC50 [1]	IC50 [2, 3]	IC50 [2]
O=S(=O)(Nc1nccs1)c1cc(Cl)c(N[C@H]2CCCC[C@@H]2N2CCC3(CC2)CC3)cc1F [Example 154, 4-(((1S,2S)-2-(6-Azaspiro[2.5]octan-6-yl)cyclohexyl)amino)-5-chloro-2-fluoro-N-(thiazol-2-yl)benzenesulfonamide formate]	1200 nM	101 nM	
CN(C1CN(C(=O)C2CC2)C1)[C@H]1CCCC[C@@H]1Nc1cc(F)c(S(=O)(=O)Nc2nccs2)cc1Cl [Example 155, 5-Chloro-4-(((1S,2S)-2-((1-(cyclopropanecarbonyl)azetidin-3-yl)(methyl)amino)-cyclohexyl)amino)-2-fluoro-N-(thiazol-2-yl)benzenesulfonamide]	130 nM	12.3 nM	
CN([C@H]1C[C@@H](O)C1)[C@H]1CCCC[C@@H]1Nc1cc(F)c(S(=O)(=O)Nc2nccs2)cc1Cl [Example 156, 5-Chloro-2-fluoro-4-(((1S,2S)-2-((cis-3-hydroxycyclobutyl)(methyl)amino)cyclohexyl)amino)-N-(thiazol-2-yl)benzenesulfonamide formate]	316 nM	18.9 nM	
CN([C@H]1C[C@H](O)C1)[C@H]1CCCC[C@@H]1Nc1cc(F)c(S(=O)(=O)Nc2nccs2)cc1Cl [Example 157, 5-Chloro-2-fluoro-4-(((1S,2S)-2-((trans-3-hydroxycyclobutyl)(methyl)amino)cyclohexyl)amino)-N-(thiazol-2-yl)benzenesulfonamide formate]	337 nM	24.1 nM	
CN(CCO)[C@H]1C[C@@H](C(F)(F)F)CC[C@@H]1Nc1cc(F)c(S(=O)(=O)Nc2cccc(F)n2)cc1Cl [Example 158, 5-chloro-2-fluoro-N-(6-fluoropyridin-2-yl)-4-(((1S,2S,4S)-2-((2-hydroxyethyl)(methyl)amino)-4-(trifluoromethyl)cyclohexyl)amino)benzenesulfonamide formate]	5.96 nM	2.71 nM	
O=S(=O)(Nc1nccs1)c1cc(Cl)c(N[C@@H]2CCCC[C@H]2N2CC3CC3C2)cc1F (stereo partly drawn) [Example 159, 4-(((1R,2R)-2-(3-azabicyclo[3.1.0]hexan-3-yl)cyclohexyl)amino)-5-chloro-2-fluoro-N-(thiazol-2-yl)benzenesulfonamide]	1790 nM		202 nM
O=S(=O)(Nc1nccs1)c1cc(Cl)c(N[C@H]2CCCC[C@@H]2N2CC3CC3C2)cc1F (stereo partly drawn) [Example 160, 4-(((1S,2S)-2-(3-azabicyclo[3.1.0]hexan-3-yl)cyclohexyl)amino)-5-chloro-2-fluoro-N-(thiazol-2-yl)benzenesulfonamide]	20.3 nM		2.27 nM
N#C[C@@H]1CCN([C@H]2CCCC[C@@H]2Nc2cc(F)c(S(=O)(=O)Nc3nccs3)cc2Cl)C1 [Example 161, 5-Chloro-4-(((1S,2S)-2-((R)-3-cyanopyrrolidin-1-yl)cyclohexyl)amino)-2-fluoro-N-(thiazol-2-yl)benzenesulfonamide formate]	187 nM	3.03 nM	
N#C[C@H]1CCN([C@H]2CCCC[C@@H]2Nc2cc(F)c(S(=O)(=O)Nc3nccs3)cc2Cl)C1 [Example 162, 5-Chloro-4-(((1S,2S)-2-((S)-3-cyanopyrrolidin-1-yl)cyclohexyl)amino)-2-fluoro-N-(thiazol-2-yl)benzenesulfonamide formate]	248 nM	8.55 nM	
CN1CCN([C@H]2CCCC[C@@H]2Nc2cc(F)c(S(=O)(=O)Nc3nccs3)cc2Cl)CC1 [Example 163, 5-Chloro-2-fluoro-4-(((1S,2S)-2-(4-methylpiperazin-1-yl)cyclohexyl)amino)-N-(thiazol-2-yl)benzenesulfonamide]	201 nM	18.1 nM	
CN(C)[C@@H]1Cc2ccccc2C[C@H]1Nc1cc(F)c(S(=O)(=O)Nc2nccs2)cc1Cl [Example 164, 5-Chloro-4-(((2R,3R)-3-(dimethylamino)-1,2,3,4-tetrahydronaphthalen-2-yl)amino)-2-fluoro-N-(thiazol-2-yl)benzenesulfonamide]	53.4 nM	7.43 nM	
CN(C)[C@H]1Cc2ccccc2C[C@@H]1Nc1cc(F)c(S(=O)(=O)Nc2nccs2)cc1Cl [Example 165, 5-Chloro-4-(((2S,3S)-3-(dimethylamino)-1,2,3,4-tetrahydronaphthalen-2-yl)amino)-2-fluoro-N-(thiazol-2-yl)benzenesulfonamide]	2000 nM	511 nM	
CC(=O)N(C)[C@H]1CCCC[C@@H]1Nc1cc(F)c(S(=O)(=O)Nc2nccs2)cc1Cl [Example 166, N-((1S,2S)-2-((2-Chloro-5-fluoro-4-(N-(thiazol-2-yl)sulfamoyl)phenyl)amino)cyclohexyl)-N-methylacetamide]	341 nM	13.9 nM	
CN(C)CC(=O)N(C)[C@H]1CCCC[C@@H]1Nc1cc(F)c(S(=O)(=O)Nc2nccs2)cc1Cl [Example 167, N-((1S,2S)-2-((2-chloro-5-fluoro-4-(N-(thiazol-2-yl)sulfamoyl)phenyl)amino)cyclohexyl)-2-(dimethylamino)-N-methylacetamide]	91.7 nM	18.7 nM	
O=S(=O)(Nc1nccs1)c1cc(Cl)c(N[C@H]2CCCC[C@@H]2N2CCC[C@H](CO)C2)cc1F [Example 168, 5-chloro-2-fluoro-4-(((1S,2S)-2-((S)-3-(hydroxymethyl)piperidin-1-yl)cyclohexyl)amino)-N-(thiazol-2-yl)benzenesulfonamide formate]	40 nM	5.16 nM	
O=S(=O)(Nc1nccs1)c1cc(Cl)c(N[C@H]2CCCC[C@@H]2N2CCC[C@@H](CO)C2)cc1F [Example 169, 5-chloro-2-fluoro-4-(((1S,2S)-2-((R)-3-(hydroxymethyl)piperidin-1-yl)cyclohexyl)amino)-N-(thiazol-2-yl)benzenesulfonamide formate]	7.56 nM	3.34 nM	
CN(C1CNC1)[C@H]1C[C@@H](C(F)(F)F)CC[C@@H]1Nc1cc(F)c(S(=O)(=O)Nc2cccc(F)n2)cc1Cl [Example 170, 4-(((1S,2S,4S)-2-(azetidin-3-yl(methyl)amino)-4-(trifluoromethyl)cyclohexyl)amino)-5-chloro-2-fluoro-N-(6-fluoropyridin-2-yl)benzenesulfonamide]	2.92 nM	3.68 nM	
Cc1csc(NS(=O)(=O)c2cc(Cl)c(N[C@H]3CC[C@H](C(F)(F)F)C[C@@H]3N(C)C)cc2F)n1 [Example 171, 5-chloro-4-(((1S,2S,4S)-2-(dimethylamino)-4-(trifluoromethyl)cyclohexyl)amino)-2-fluoro-N-(4-methylthiazol-2-yl)benzenesulfonamide formate]	255 nM	12.2 nM	
Cc1nc(NS(=O)(=O)c2cc(Cl)c(N[C@H]3CCCC[C@@H]3N(C)C)cc2F)sc1Cl [Example 172, 5-Chloro-N-(5-chloro-4-methylthiazol-2-yl)-4-(((1S,2S)-2-(dimethylamino)cyclohexyl)amino)-2-fluorobenzenesulfonamide]	38.2 nM	12.3 nM	
CN(C1CN(CC(F)(F)F)C1)[C@H]1CCCC[C@@H]1Nc1cc(F)c(S(=O)(=O)Nc2nccs2)cc1Cl [Example 175, 5-Chloro-2-fluoro-4-(((1S,2S)-2-(methyl(1-(2,2,2-trifluoroethyl)azetidin-3-yl)amino)cyclohexyl)amino)-N-(thiazol-2-yl)benzenesulfonamide]	316 nM	21.7 nM	
